Measurements: ChEMBL document CHEMBL3046606, “Synthesis and antifungal activity of novel sulfone derivatives containing 1,3,4-oxadiazole moieties” (Molecules, 2011)

Tested on: Cytospora
Test: Antifungal activity against Cytospora mandshurica at 50 ug/ml after 5 days by poison plate technique
Format: functional
Settings: 120 h

Row | SMILES | inhibition at 50 µg/mL [%]
1 | Cc1ccccc1-c1nnc(S(C)(=O)=O)o1 | 99.3
2 | COc1ccccc1-c1nnc(S(C)(=O)=O)o1 | 91.3
